Laboratory results reported in patent US7084158B2, “Substituted propargylamines” (Bayer Cropscience S.A., priority 2001, dated 2006).

Legend:
Assay type in all cases: in vivo
Design in all cases: key: compounds were considered to be active when, at a concentration of 500 ppm or less, they had an activity on the harmful organisms of 50% or more
Ctenocephalides felis = experiment: Example M: cat fleas fed with treated cattle blood, mortality; conditions: 500 ppm or less; adult fleas fed blood-preparation mixture; after 48 hours
Procedure: The formulated compound was mixed with defibrinated cattle blood. 10 adult cat fleas (Ctenocephalides felis) were fed with this blood-preparation mixture. After 48 hours at about 38° C., the effect of the compound on the fleas was determined (mortality). The compounds of the following examples were active: 70, 1002, 1004, 1005, 1036, 60, 197, 1057.

Spodoptera exigua [1] = experiment: Example S: treated L2 larvae and insect diet, sugar beet army worm mortality; conditions: 500 ppm or less, after 6 days
Procedure: A Petri dish whose bottom was covered with filter paper and which contains about 5 ml of insect diet is prepared. Five L2 larvae of sugar beet army worm (Spodoptera exigua) were counted into a small beaker. 200 μl of an aqueous solution of the formulated compound to be examined were pipetted into the beaker. The treated larvae were then poured into the Petri dish and a further 200 μl of the aqueous solution were distributed over the insect diet. The Petri dish was closed and then stored at 25° C. in a climatized chamber. After 6 days of storage, the mortality among the larvae was determined. The following examples were active: 1036, 175, 184, 1051, 1054, 1055, 234, 1057, 1059, 1060, 1063, 243, 245, 251, 257, 259, 266, 1065, 1067, 290, 291.

[2] = system: Diabrotica undecimpunctata; experiment: Example C: corn rootworm eggs with maize corn, mortality; conditions: 500 ppm or less; 4-5-day-old eggs; after 6 days
Aedes aegypti = experiment: Example AG: microtiter plate, yellow fever mosquito larvicidal activity; conditions: 500 ppm or less, after 3 days
Rhipicephalus sanguineus = experiment: Example AF: treated filter paper, tick larvae mortality; conditions: 500 ppm or less, after 24 hours
Procedure: The formulated compound was pipetted onto filter paper. After the solvent had evaporated, 20–30 tick larvae (Rhipicephalus sanguineus) were placed onto the filter paper. After 24 hours at about 25° C., the effect of the compound on the ticks was determined (mortality). The following examples were active: 197, 1057.

Heliothis virescens [3] = experiment: Example B: tobacco budworm eggs on filter paper/insect diet, mortality; conditions: 500 ppm or less; 24-hour-old eggs dipped, diet treated; after 6 days
Aphis fabae = experiment: Example R: field bean, root-systemic activity on black bean aphids; conditions: 500 ppm or less; solution pipetted into bottle; after 3 and 6 days
Procedure: Germinated field bean seeds (Vicia faba) with radicles were transferred into brown glass bottles filled with tap water. Four milliliters of an aqueous solution of the formulated compound to be examined were pipetted into the brown glass bottle. The field bean was then heavily populated with approximately 100 black bean aphids (Aphis fabae). Plant and animals were then stored in a climatized chamber (16 hours of light/day, 25° C., 40–60% relative atmospheric humidity). After 3 and 6 days of storage, the root-systemic activity of the compound on the aphids was determined (mortality). The following examples were active: 184, 186, 305, 220, 265.

Spodoptera exigua [4] = experiment: Example Y: cotton plants sprayed, cut leaves, sugar beet armyworm mortality; conditions: 500 ppm or less, leaves cut after drying, L2 larvae, after 4 days
Procedure: Cotton plants were sprayed with an aqueous solution of the formulated compound to be examined. After drying, leaves were cut off, placed into a Petri dish and populated with 5 L2 larvae of the sugar beet armyworm (Spodoptera exigua). After 4 days of storage at about 23° C., the mortality among the larvae was determined. The following examples were active: 1036, 70, 60, 1047, 197.

[5] = system: Leptinotarsa decemlineata; experiment: Example L: potato leaves and larvae sprayed, Colorado beetle mortality; conditions: 500 ppm or less, after 4 days
Procedure: Potato leaves were populated with larvae of the Colorado beetle (Leptinotarsa decemlineata). Leaves and larvae were then sprayed with an aqueous solution of the formulated compound to be examined. After 4 days of storage at about 25° C., the effect of the compound on the larvae was determined (mortality). The compounds of the following examples were active: 60, 70, 1002, 1004, 1005, 1036, 1047, 197.

Meloidogyne incognita = experiment: Example H: root gall nematode larvae immobilization (contact activity); conditions: 500 ppm or less; 2nd stage larvae; 6 days permanent exposure
Procedure: In a glass vessel, an aqueous solution of the formulated compound to be examined was added to about 3000 freshly hatched active (mobile) larvae (2nd development stage) of the root gall nematode (Meloidogyne incognita) (final volume 20 ml). After 6 days of permanent exposure of the nematode larvae, the percentage of the individual larvae immobilized by the activity of the compound was determined in comparison to the untreated controls (contact activity). The compounds of the following examples were active: 39, 52, 159, 161, 162, 163, 164, 165, 1045, 1046, 1047, 179, 183, 187, 1048, 298, 206, 208, 227, 230, 1061, 237, 238, 245, 250, 255, 256, 260, 268, 269, 274, 275, 288, 290.

Spodoptera exigua [6] = experiment: Example Z: cotton leaves with larvae sprayed, sugar beet armyworm mortality; conditions: 500 ppm or less; cotton leaves populated then sprayed; L2 larvae; after 4 days
Procedure: Cotton leaves were populated with 5 L2 larvae of the sugar beet armyworm (Spodoptera exigua) and then sprayed with an aqueous solution of the formulated compound to be examined. After 4 days of storage at about 23° C., the mortality among the larvae was determined. The following examples were active: 1036, 70, 60, 1047, 197.

Spodoptera littoralis = experiment: Example G: treated L2 larvae and insect diet, Egyptian cotton leafworm mortality; conditions: 500 ppm or less, after 6 days
Procedure: A Petri dish whose bottom was covered with filter paper and which contained about 5 ml of insect diet is prepared. Five L2 larvae of the Egyptian cotton leafworm (Spodoptera littoralis) were counted into a small beaker. 200 μl of an aqueous solution of the formulated preparation to be examined were pipetted into the beaker. The treated larvae were then poured into the Petri dish, and a further 200 μl of the aqueous solution were distributed over the insect diet. The Petri dish was closed and then stored at about 25° C. in a climatized chamber. After 6 days of storage, the effect of the compound on the larvae was determined (mortality). The compounds of the following examples were active: 29, 70, 60, 159, 1005, 1040, 1042, 1044, 1045, 1046, 1047.

Heliothis virescens [7] = experiment: Example AB: cotton leaves with larvae sprayed, tobacco budworm mortality; conditions: 500 ppm or less; cotton leaves with L2 larvae sprayed; after 4 days
Procedure: Cotton leaves were placed into a Petri dish, populated with 5 L2 larvae of the American tobacco budworm (Heliothis virescens) and sprayed with an aqueous solution of the formulated compound to be examined. After 4 days of storage at about 25° C., the mortality among the larvae was determined. The following examples were active: 70, 1047, 197.

CC1CCN(CC#Cc2cc(C(F)(F)F)cc(Cl)n2)CC1.Cl [Example 1057]
active: effect on the fleas (mortality) (Ctenocephalides felis) | mortality among the larvae (Spodoptera exigua [1]) | effect on the eggs and hatched larvae (mortality) [2] | larvicidal activity (Aedes aegypti) | effect on the ticks (mortality) (Rhipicephalus sanguineus) | effect on the eggs and hatched larvae (mortality) (Heliothis virescens [3])

CC1CCN(CC#Cc2cccc(-c3ccc([N+](=O)[O-])cc3)c2)CC1 [Example 220]
active: root-systemic activity on the aphids (mortality) (Aphis fabae)

CC1CCN(CC#Cc2cc(C(F)(F)F)cc(C(F)(F)F)n2)CC1.Cl [Example 1047]
active: mortality among the larvae (Spodoptera exigua [4]) | effect on the larvae (mortality) [5] | effect on the eggs and hatched larvae (mortality) [2] | percentage of larvae immobilized (contact activity) (Meloidogyne incognita) | effect on the eggs and hatched larvae (mortality) (Heliothis virescens [3]) | mortality among the larvae (Spodoptera exigua [6]) | effect on the larvae (mortality) (Spodoptera littoralis) | mortality among the larvae (Heliothis virescens [7])
